Reference: publication PMC8400257, “2-Phenoxy-3-Trichloromethylquinoxalines Are Antiplasmodial Derivatives with Activity against the Apicoplast of Plasmodium falciparum” (Pharmaceuticals, 2021)
Read-outs that look alike come from different tables or passages of the source.

Assays:
[1] = tested on: Pf3D7 (3D7 chloroquine-sensitive strain); details: Figure 2; cited from earlier work
HepG2 = details: Figure 2; cited from earlier work
[2] = tested on: P. falciparum (NF135 strain) hepatic exoerythrocytic forms; assay: Liver stage development in infected primary human hepatocytes; type: cell-based, Plasmodium falciparum; details: 3i 0.9-30 µM, ATQ 25 nM; 6 or 12 days post-infection
Method: The effect of (3i) on the hepatic stage of P. falciparum was next studied in order to know if (3i) was active against another stage of P. falciparum cycle. Cryopreserved primary human hepatocytes were infected with 30,000 freshly extracted P. falciparum sporozoites and simultaneously treated with a dose range (0.9–30 µM) of (3i). Atovaquone (ATQ) was used as a positive parasite-killing control at 25 nM.
P. falciparum (NF135 strain) sporozoites were isolated by dissection of the salivary glands of infected A. stephensi 14–21 days after an infective blood meal (Department of medical microbiology, University Medical Centre, St Radboud, Nijmegen Netherland). All infected salivary glands were removed by hand dissection, crushed in a potter for sporozoites isolation, and filtrated through a 40 μm filter to remove mosquito debris (Cell Strainer, BD BioSciences, Franklin Lakes, NJ, USA). The sporozoites were counted using a disposable Glasstic microscope slide (KOVA, Garden Grove, CA, USA).
One day before hepatocyte thawing, 96-well plates were coated by a Corning®® collagen solution (50 µg/mL rat tail type I collagen in 0.02N acid acetic) over night at room temperature. The next day, the wells were washed twice by PBS solution. Cryopreserved primary human hepatocytes (LONZA, Basel, Swiss) were seeded in 96-well plates with a pre-determined seeding dose that gave a single dense layer of attached hepatocytes. Four days post-seeding, each plate well was infected with 30,000 freshly extracted Plasmodium falciparum sporozoites. […]
Hepatocyte cultures were fixed with 4% paraformaldehyde solution (PFA, Invitrogen) for 10 min. […] Images were analyzed and prepared with ImageJ software. Apicoplast morphology was observed and quantified by eye under a confocal microscope.
Upon immunostaining of parasites, the study plates were scanned using a CellInsight high-content screening platform equipped with the Studio HCS software (Thermo Fisher Scientific, Waltham, MA, USA). […] The number of host hepatocyte nuclei per well was counted by the system as a measure of toxicity of 3i towards the liver cells. […]

P. falciparum apicoplast = assay: Immunofluorescence assay of apicoplast biogenesis on treated blood-stage parasites; type: cell-based, Plasmodium falciparum; details: 48 h, 0.2 µM
Method: (§1) To determine the impact of (3i) on apicoplast biogenesis, parasites were treated for 48 h with 0.2 µM of (3i) or 0.2 µM of (2i) (a control of (3i) for which the active CCl3 was replaced by a methyl CH3 group) and compared to untreated parasites by immunofluorescence assay. […] In order to determine if the apicoplast is the main target of (3i), we performed a growth assay over three life cycles to assess a potential delayed death effect, one of the major signature for compounds affecting apicoplast. […] The second interpretation could be that, unlike chloramphenicol or doxycycline, which cause a delayed death phenotype on Plasmodium, (3i) could act like fosmidomycin or actinonin and cause a rapid death phenotype.
Plasmodium falciparum blood stage parasites were maintained at 2% hematocrit in 1640 RPMI-HEPES, supplemented with 5% AlbuMAX II (GIBCO) and 0.25% gentamycin. Parasites were grown sealed Perspex chambers gassed with beta mix gas (1% O2, 5% CO2 and 94% N2) at 37 °C and maintained on 48-h cycles. Cultures were tightly synchronized at ring stage using sorbitol treatment (5% v/v) as previously described.
Prior to the treatment, parasites were synchronized using 5% sorbitol. After 48 h treatment ([…] or DMSO) parasites were fixed using 4% paraformaldehyde (PFA) and 0.0075% glutaraldehyde for 30 min at room temperature. […]

[3] = tested on: Plasmodium falciparum blood stage parasites; assay: Growth assay over three life cycles (delayed death); type: cell-based; details: 0.2 µM; 48, 96, 144 h
Method: as §1
To observe a potential effect of delayed death of the molecule on the parasite, Plasmodium was maintained on three life cycles (48 h). […] Fluorescence from each well was measured with TECAN infinite M200 plate reader (excitation: 485 nm, emission: 538 nm and integration time: 1000 μs). […] A graph was obtained by performing the ration of the treated culture fluorescence intensity on the untreated culture fluorescence intensity (n = 3).

[4] = tested on: K1 chloroquine and pyrimethamine-resistant P. falciparum strain; assay: In vitro antiplasmodial evaluation (SYBR Green I); type: cell-based, Plasmodium falciparum; details: K1 strain, 72 h incubation, three independent experiments, read-out: EC50 PfK1 (µM) ± SD
Method: For all molecules, the selectivity index was calculated as following SI = CC50/EC50.
It was maintained in continuous culture, as described previously by Trager and Jensen. Cultures were maintained in fresh A+ human erythrocytes at 2.5% hematocrit in complete medium (RPMI 1640 with 25 mM HEPES, 25 mM NaHCO3, 10% of A+ human serum) at 37 °C under reduced O2 atmosphere (gas mixture 10% O2, 5% CO2, and 85% N2). Parasitemia was maintained daily between 1 and 3%. The P. falciparum drug susceptibility test was carried out by comparing quantities of DNA in treated and control cultures of parasite in human erythrocytes according to an SYBR Green I fluorescence-based method using a 96-well fluorescence plate reader. Compounds, previously dissolved in DMSO (final concentration less than 0.5% v/v), were incubated in a total assay volume of 200 μL (RPMI, 2% hematocrit and 0.4% parasitemia) for 72 h in a humidified atmosphere (10% O2 and 5% CO2) at 37 °C, in 96-well flat bottom plates. Duplicate assays were performed for each sample. After incubation, plates were frozen at […] for 24 h. Then, the frozen plates were thawed for 1 h at 37 °C. Fifteen µL of each sample were transferred to 96-well flat bottom non-sterile black plates (Greiner Bio-one, Kremsmünster, Austria), already containing 15 µL of the SYBR Green I lysis buffer (2X SYBR Green I, 20 mM Tris base pH 7.5, 20 mM EDTA, 0.008% w/v saponin, 0.08% w/v Triton X-100). […] Plates were incubated for 15 min at 37 °C and then read on a TECAN Infinite F-200 spectrophotometer with excitation and emission wavelengths at 485 and 535 nm, respectively.

## Brc1ccc(Nc2nc3ccccc3nc2Nc2ccc(Br)cc2)cc1 [MMV007224]
[1]
  EC50: 1.06 µM
HepG2
  CC50: 5.1 µM

## O=C1C(O)=C([C@H]2CC[C@H](c3ccc(Cl)cc3)CC2)C(=O)c2ccccc21 [ATQ, Atovaquone, reference compound]
[2]
  Effect on exoerythrocytic forms (EEF or schizont) size and numbers: completely clear all parasites from the culture

## Cc1nc2ccccc2nc1Oc1ccc([N+](=O)[O-])cc1 [2i, 2-Methyl-3-(4-nitrophenoxy)quinoxaline]
P. falciparum apicoplast
  Effect on apicoplast biogenesis (immunofluorescence): absence of effect
[3]
  Parasite growth over three life cycles (ratio treated/untreated): absence of effect
[4]
  EC50: > 16 µM
[4]; Plasmodium falciparum, K1, 72 h
  EC50: > 25 µM
